“Also recorded” adds a separate entry of the source.
Experiments:
KBM7 cells [1] = assay: Viability/proliferation of wild type and ATPIF1 null KBM7 cells treated with mitochondrial poisons (7-AAD, FACS); format: cell-based, human; settings: for resistance of ATPIF1 null KBM7 cells to the poison: viability four days later, FIG. 1C-D, FIG. 2; for viability of ATPIF1 KO vs WT KBM7 cells in response to ETC inhibitors: 7AAD, FIG. 8A
Source text: In order to identify potential drug targets for treatment of mitochondrial disorders, we decided to use inhibitors of oxidative phosphorylation (OXPHOS) to model mitochondrial diseases and search for genes, loss-of-function of which can confer resistance to mitochondrial dysfunction caused by the poison. To that end, we explored use of a screening platform based on gene inactivation in human cells using insertional mutagenesis that has recently been developed using the KBM7 CML cell line, which is haploid for all chromosomes except chromosome 8 (5). In this system, insertional mutagenesis is accomplished using a gene trap vector. […]
For the viability assays described in this Example and Example 2, 200,000 cells were used for each sample. Cells were treated with the desired concentration of drug and viability was assessed four days later using 7-AAD and FACS analysis.
(§1) Suspension cells were kept on ice, then spun at 4000 rpm for 5 minutes at 4° C. in a table-top microcentrifuge, supernatant aspirated, cells washed once with ice-cold PBS, resuspended in ice-cold PBS with 2 ug/mL 7-AAD viability dye, incubated for 5 minutes on ice, and analyzed by FACS. For adherent cells, the overlying media and PBS used for pre-trypsinization washes was collected and combined with the suspension of trypsinized cells to gather any dead cells that may have detached into the media. The cell suspensions were kept on ice, spun at 1500 rpm for 5 minutes at 4° C. in a swinging bucket centrifuge, supernatant aspirated, cells washed once with ice-cold PBS, resuspended in ice-cold PBS with 2 ug/mL 7-AAD viability dye, incubated for 5 minutes on ice, and analyzed by FACS. Viability was assessed by 7-AAD exclusion. For HeLa, SH-SY5Y, and Malme-3M cells, 500-2,000 cells were seeded per well of white, clear-bottom 96-well plates (Greiner Bio-One), treated with drugs, and then analyzed using CellTiter-Glo according to the manufacturer's instructions (Promega). For primary hepatocytes, 100,000 cells were seeded per well of a 24-well TPP plate (Light Labs), treated with antimycin, and then analyzed using CellTiter-Glo.

KBM7 cells [2] = assay: ddI-induced mtDNA depletion in WT and IF1 KO KBM7 cells (proliferation, mtDNA copy number, ATPIF1 protein); format: cell-based, human
Source text: mtDNA was extracted using a QiaAmp DNA Mini Kit (Qiagen) and primers specific to the mitochondrial gene ND1 and the nuclear gene Actb were used in conjunction with a SyBr Green Kit (AB) according to the manufacturer's instructions. The ratio of ND1 copies to Actb copies was used to assess the relative mtDNA/nuclear DNA copy numbers between different samples. In some experiments primers targeting the mitochondrial gene ND1 and the nuclear gene RUNX2 were used to assess mtDNA copy number by normalizing ct values of ND1 to those of RUNX2: ND1_F, CCCTAAAACCCGCCACATCT (SEQ ID NO. 14); ND1_R, GAGCGATGGTGAGAGCTAAGGT (SEQ ID NO. 15); RUNX2_F, CGCATTCCTCATCCCAGTATG (SEQ ID NO. 16); RUNX2_R, AAAGGACTTGGTGCAGAGTTCAG (SEQ ID NO. 17). Relative differences between samples were determined using the comparative Ct method.
KBM7 cells were cultured in IMDM supplemented with 10% IFS and penicillin/streptomycin, except for studies using tigecycline in which they were cultured in RPMI-1640. SH-SY5Y, HeLa, Malme-3M cells were cultured in DMEM supplemented with 10% FBS and penicillin/streptomycin. HeLa WT, HeLa ρ^0, and KBM7 cells used for ddI experiments were grown in DMEM supplemented with 10% FBS, penicillin/streptomycin, and 100 μg/mL uridine. Primary hepatocytes were cultured in Medium 199 supplemented with 10% FBS, penicillin/streptomycin, and GlutaMAX. KBM7, HeLa WT, and HeLa ρ^0 cells stably overexpressing ATPIF1 (WT or E55A) were generated via infection with retroviruses and selected with blasticidin (10 μg/mL) for three days. Malme-3M cells stably overexpressing RAP2A or ATPIF1 were generated by infection with lentiviruses expressing the corresponding cDNAs, followed by selection with puromycin (2 μg/mL) for three days. KBM7, SH-SY5Y, and HeLa cells expressing shLuc or shATPIF1 were generated by infection with lentiviruses expressing the corresponding shRNAs. All cells were infected with spin-infection using a 30 minute spin at 2,250 rpm in media containing polybrene (4 μg/mL), followed by selection one day later.
Failure to maintain proper amounts of the mitochondrial genome is a distinctive feature of a class of severe respiratory chain disorders known as mtDNA depletion syndromes (Lee and Sokol, 2007). Because of our interest in ATPIF1 inhibition as a potential strategy for ameliorating severe ETC dysfunction, we asked if loss of ATPIF1 alone was sufficient to improve cell viability during progressive mtDNA depletion. To do this, we exposed WT and IF1 KO KBM7 cells for 50 days to the drug 2′,3′-dideoxyinosine (ddI), an inhibitor of mtDNA replication, which depletes cells of their mtDNA (Lewis et al., 2003; Walker et al., 2002).

KBM7 cells [3] = assay: Mitochondrial membrane potential (TMRM staining, FACS) in WT and ATPIF1 KO KBM7 cells; format: cell-based, human; settings: for rescue by loss of ATPIF1 of the loss of mitochondrial membrane potential caused by the poison: FIG. 4, TMRM
Experimental: Membrane potential was assessed using tetramethyl rhodamine methyl ester (TMRM). For the TMRM time course: 200,000 cells were used for each time point. Cells were treated with 121 uM antimycin and incubated in 25 nM TMRM (final concentration) in IMDM 20 minutes from the end of their time point at 37° C. and then analyzed by FACS analysis. Dead cells were excluded using 7-AAD.
(§2) 200,000 cells were stained with 25 nM TMRM dye (Invitrogen) in parent media of cells. In the case of adherent cells, 10 uM verapamil (Sigma-Aldrich) was added to help retention of the dye. For suspension cells, the incubation of the dye was done for 30 minutes at 37° C., whereas for adherent cells, the incubation was done for 1 hour at 37° C. Suspension cells were kept on ice, then spun at 4000 rpm for 5 minutes at 4° C. in a table-top microcentrifuge, supernatant aspirated, cells washed once with ice-cold PBS, resuspended in ice-cold PBS with 2 ug/mL 7-AAD viability dye, incubated for 5 minutes on ice, and analyzed by FACS. Only 7-AAD negative live cells were analyzed. Adherent cells were first trypsinized, kept on ice, spun at 4000 rpm for 5 minutes at 4° C. in a table-top microcentrifuge, supernatant aspirated, cells washed once with ice-cold PBS, resuspended in ice-cold PBS with 2 ug/mL 7-AAD viability dye, incubated for 5 minutes on ice, and analyzed by FACS. Only 7-AAD negative live cells were analyzed.
(§3) FACS assays. For measurements of ΔΨm, 100,000 cells were incubated with TMRM (25 nM) and the indicated amounts of drugs for the indicated amounts of time before collection. For measurements of mitochondrial mass, 100,000 cells were incubated with MitoTracker Green FM (50 nM) for one hour. For primary hepatocytes, cells were assayed in suspension immediately after harvest from the liver and incubated with verapamil (20 μM) to facilitate retention of TMRM and MitoTracker Green FM signals. Afterwards, cells were collected by centrifugation, washed once with PBS, and resuspended in PBS with 7-AAD (2 μg/mL) for analysis. KBM7 cells and primary hepatocytes were centrifuged at 2000 rpm for 5 minutes and 500 rpm for 5 minutes at 4° C., respectively.

COX1 mutant cells = assay: MMP and viability of cybrid cells with mtDNA from a patient with a deficiency in COX1; format: cell-based, human; settings: FIG. 7E
Experimental: as §2
(§4) Suspension cells were kept on ice, then spun at 4000 rpm for 5 minutes at 4° C. in a table-top microcentrifuge, supernatant aspirated, cells washed once with ice-cold PBS, resuspended in ice-cold PBS with 2 ug/mL 7-AAD viability dye, incubated for 5 minutes on ice, and analyzed by FACS. […] Viability was assessed by 7-AAD exclusion. […]

KBM7 cells [4] = assay: Cellular ATP (CellTiterGlo) in WT and ATPIF1 KO KBM7 cells; format: cell-based, human
Experimental: (§5) Equal numbers of cells were plated and ATP was determined using a CellTiterGlo assay (Promega) according to the manufacturer's instructions.

[5] = tested on: cybrid cells having mtDNA derived from a normal (WT) subject; assay: MMP and viability of cybrid cells with mtDNA from a normal (WT) subject; format: cell-based, human; settings: FIG. 7E
Experimental: as §2, §4

KBM7 cells [6] = assay: Metabolite profiling of WT and IF1 KO KBM7 cells after antimycin treatment; format: cell-based, human; settings: after 1 hour of antimycin treatment; FIG. 7D as printed
Experimental: 4 million KBM7 cells were centrifuged at 1500 rpm for 4 minutes at 4° C. in a swinging bucket centrifuge after the desired drug treatments. The supernatant was decanted and the cell pellet kept on dry ice. Each cell pellet was washed twice with ice-cold PBS. 3 mL of 80% ice-cold MeOH was then added to each pellet and the pellet vigorously resuspended. Samples were then submitted to the Broad Institute Metabolomics Platform for further processing and analysis.

Malme-3M cells = assay: Viability of Malme-3M cells overexpressing ATPIF1 treated with antimycin (CellTiter-Glo); format: cell-based; settings: antimycin for 4 days; FIG. 7G
Experimental: as §1, with “CellTiter-Glo. […]” for “CellTiter-Glo.”

primary hepatocytes = assay: ATP, ΔΨm and viability of WT and ATPIF1−/− primary hepatocytes treated with antimycin; format: cell-based, mice
Experimental: as §5, §1
as §3, with “KBM7 cells and primary hepatocytes were centrifuged at 2000 rpm for 5 minutes and 500 rpm for 5 minutes at 4° C., respectively.” left out

[7] = initial days of ddI treatment (Early)

N#CC(C#N)=NNc1ccc(OC(F)(F)F)cc1 [FCCP, carbonylcyanide p-trifluoromethoxyphenylhydrazone]
resistance of ATPIF1 null KBM7 cells to the poison (KBM7 cells [1]; 7-AAD): resistant

C[n+]1ccc(-c2ccccc2)cc1 [MPP+, 1-methyl-4-phenylpyridinium]
viability of ATPIF1 KO vs WT KBM7 cells in response to ETC inhibitors (KBM7 cells [1]): cells lacking ATPIF1 have increased viability as compared to wild type cells

O=C(CC(=O)C(F)(F)F)c1cccs1 [TTFA]
resistance of ATPIF1 null KBM7 cells to the poison (KBM7 cells [1]; 7-AAD): resistant

OC[C@@H]1CC[C@H](n2cnc3c(O)ncnc32)O1 [ddI, 2′,3′-dideoxyinosine]
mtDNA of WT and ATPIF1_KO KBM7 cells (KBM7 cells [2]; by about day 25 of ddI treatment (Middle)): trace amounts of mtDNA | proliferation of ATPIF1_KO vs WT KBM7 cells (KBM7 cells [2]; ddI, Middle (days 19-34)): significantly faster rate of proliferation | cell proliferation of WT and ATPIF1_KO KBM7 cells (KBM7 cells [2]; [7]): decrease in cell proliferation | mtDNA copy number of WT and ATPIF1_KO KBM7 cells (KBM7 cells [2]; [7]): immediate decrease in mtDNA copy number | ATPIF1 protein levels and activity of WT KBM7 cells (KBM7 cells [2]; long-term exposure to ddI, FIG. 8E): greatly reduced ATPIF1 protein levels and activity

CC[C@H]1/C=C/C=C/C[C@@H](C)[C@H](O)[C@@](C)(O)C(=O)[C@@H](C)[C@H](O)[C@@H](C)C(=O)[C@@H](C)[C@H](O)[C@@H](C)/C=C/C(=O)O[C@@H]2[C@H](C)[C@H](CC1)O[C@]1(CC[C@H](C)[C@H](C[C@@H](C)O)O1)[C@H]2C [oligomycin]
rescue by loss of ATPIF1 of the loss of mitochondrial membrane potential caused by the poison (KBM7 cells [3]): not rescued | MMP (ΔΨm) of antimycin-treated IF1 KO KBM7 cells on addition of oligomycin (KBM7 cells [3]; oligomycin added to antimycin): completely prevents IF1 KO cells from rescuing their MMP; also recorded: decreased ΔΨm | survival of antimycin-treated IF1 KO KBM7 cells on addition of oligomycin (KBM7 cells [1]; oligomycin added to antimycin, 7-AAD, FIG. 7D): decreased survival | MMP of cells having patient-derived (COX1 deficient) mtDNA (COX1 mutant cells): dramatic decrease in MMP | viability of cells having patient-derived (COX1 deficient) mtDNA (COX1 mutant cells): kills the cells having patient-derived mtDNA | ATP of antimycin-treated IF1 KO KBM7 cells on addition of oligomycin (KBM7 cells [4]; oligomycin added to antimycin): completely prevents IF1 KO cells from rescuing their MMP and using ATP; also recorded: increased ATP levels | MMP and viability of cells having mtDNA derived from healthy subjects (WT) [5]: not cells having mtDNA derived from healthy subjects

C/C=C(\C)[C@H](O)[C@H](C)/C=C(C)/C=C/C/C(C)=C/Cc1nc(OC)c(OC)c(O)c1C [piercidin A, Piericidin A]
viability of ATPIF1 KO vs WT KBM7 cells in response to ETC inhibitors (KBM7 cells [1]): cells lacking ATPIF1 have increased viability as compared to wild type cells | resistance of ATPIF1 null KBM7 cells to the poison (KBM7 cells [1]; 7-AAD): resistant

CN(C)c1cc(NC(=O)CNC(C)(C)C)c(O)c2c1C[C@H]1C[C@H]3[C@H](N(C)C)C(O)=C(C(N)=O)C(=O)[C@@]3(O)C(O)=C1C2=O [tigecycline]
viability of ATPIF1 KO vs WT KBM7 cells in response to ETC inhibitors (KBM7 cells [1]): cells lacking ATPIF1 have increased viability as compared to wild type cells

antimycin A
rescue by loss of ATPIF1 of the loss of mitochondrial membrane potential caused by the poison (KBM7 cells [3]): rescued (in part) | MMP in IF1 KO KBM7 cells (KBM7 cells [3]; antimycin exposure, FIG. 7B): significant recovery in MMP after loss of MMP | recovery of MMP in WT KBM7 cells (KBM7 cells [3]; antimycin exposure, FIG. 7B): WT cells did not | proliferation of clone 18 (ATPIF1 null) KBM7 cells (KBM7 cells [1]; antimycin A 121 μm, FIG. 1D): clone 18 cells continue proliferating | proliferation of wild type KBM7 cells (KBM7 cells [1]; antimycin A 121 μm, FIG. 1D): wild type cells cease proliferating | resistance of ATPIF1 null KBM7 cells to the poison (KBM7 cells [1]; 7-AAD): marked resistance | glycolytic metabolites (DHAP, glyceraldehyde 3P, F6P), IF1 KO vs WT KBM7 cells (KBM7 cells [6]): more depletion of glycolytic metabolites | sensitivity of Malme-3M cells overexpressing ATPIF1 (Malme-3M cells): increased their sensitivity to antimycin | cellular ATP, ATPIF1−/− vs WT hepatocytes (primary hepatocytes; antimycin 0.625 μM for 1.5 hours, FIG. 11B): greater decrease in cellular ATP | cell viability, ATPIF1−/− vs WT hepatocytes (primary hepatocytes; antimycin 1.25 μM for 2 days, FIG. 11D): increased cell viability relative to WT hepatocytes | ΔΨm, ATPIF1−/− vs WT hepatocytes (primary hepatocytes; antimycin 10 μM for 1.5 hours, FIG. 11C): greater increase in ΔΨm | ATP levels of ATPIF1 null vs WT KBM7 cells following antimycin treatment (KBM7 cells [4]; FIG. 3A): significantly lower levels of initial ATP compared to WT cells | ATP levels in IF1 KO KBM7 cells (KBM7 cells [4]; antimycin exposure, FIG. 7B): decreased significantly | ATP levels in WT KBM7 cells (KBM7 cells [4]; antimycin exposure, FIG. 7B): not in WT cells

Reference: patent publication US20150065556A1, “THERAPEUTIC TARGETS FOR MITOCHONDRIAL DISORDERS” (Whitehead Institute for Biomedical Research, priority 2013, published 2015)
